Source: ChEMBL document CHEMBL1131925, “Modulation of multidrug resistance in tumor cells by taxinine derivatives” (Bioorg Med Chem Lett, 1999)
≈ marks a conversion by molar mass, not a printed value.

How the values were obtained:
[1] = Amount of vincristine (VCR) accumulation in multidrug-resistant human ovarian cancer 2780AD cells at a concentration of 1 ug/mL.; assay type: functional, A2780 ADR
[2] = Amount of vincristine (VCR) accumulation in multidrug-resistant human ovarian cancer 2780AD cells at a concentration of 10 ug/mL.; assay type: functional, A2780 ADR
[3] = Cytotoxicity against murine lymphoma L1210 cells; assay type: functional, cell-based; details: Mus musculus
[4] = Cytotoxicity against human epidermoid carcinoma KB cells; assay type: functional, cell-based

| Compound | Vincristine accumulation (% of control) [1] | Vincristine accumulation [2] | IC50 [3] | IC50 [4] |
| --- | --- | --- | --- | --- |
| C=C1[C@@H](O)CC[C@@]2(C)[C@@H](OC(C)=O)[C@H](OC(C)=O)C3=C(C)C(=O)C[C@@H]([C@@H](OC(=O)/C=C/c4ccccc4)[C@H]12)C3(C)C | 207% | 727% | – | – |
| CC(=O)O[C@@H]1[C@@H]2CC(=O)C(C)=C([C@@H](OC(C)=O)[C@H](OC(C)=O)[C@]3(C)CC[C@H](OC(=O)c4ccccc4)[C@]4(CO4)[C@@H]13)C2(C)C | 200% | 391% | – | – |
| CC(=O)O[C@@H]1[C@@H]2CC(=O)C(C)=C([C@@H](OC(C)=O)[C@H](OC(C)=O)[C@]3(C)CC[C@H](O)[C@@]4(CO4)[C@@H]13)C2(C)C | 180% | 364% | – | – |
| C=C1[C@@H](O)CC[C@@]2(C)[C@@H](OC(C)=O)[C@H](OC(C)=O)C3=C(C)[C@H](OC(=O)/C=C/c4ccccc4)C[C@@H]([C@@H](OC(C)=O)[C@H]12)C3(C)C | 213% | 551% | – | – |
| C=C1[C@@H](O)CC[C@@]2(C)[C@@H](OC(C)=O)[C@H](OC(C)=O)C3=C(C)[C@@H](OC(=O)/C=C/c4ccccc4)C[C@@H]([C@@H](OC(C)=O)[C@H]12)C3(C)C | 249% | 699% | – | – |
| C=C1[C@@H](O)CC[C@@]2(C)[C@@H](OC(C)=O)[C@H](OC(C)=O)C3=C(C)C(=O)C[C@@H]([C@@H](OC(C)=O)[C@H]12)C3(C)C [TAXININE A] | 153% | 461% | – | – |
| COc1ccc(CCN(C)CCCC(C#N)(c2ccc(OC)c(OC)c2)C(C)C)cc1OC (centres undefined) [VERAPAMIL] | 254% | 739% | – | – |
| C=C1[C@@H](OC(=O)/C=C/c2ccccc2)CC[C@@]2(C)[C@@H](OC(C)=O)[C@H](OC(C)=O)C3=C(C)[C@H](OC(=O)/C=C/c4ccccc4)C[C@@H]([C@@H](OC(C)=O)[C@H]12)C3(C)C | 157% | 234% | – | – |
| C=C1[C@@H](OCOCc2ccccc2)CC[C@@]2(C)[C@@H](OC(C)=O)[C@H](OC(C)=O)C3=C(C)C(=O)C[C@@H]([C@@H](OC(C)=O)[C@H]12)C3(C)C | 401% | 1110% | 8 µg/mL (≈ 13.4 µM) | 9 µg/mL (≈ 15.1 µM) |
| C=C1[C@@H](OC(=O)c2ccccc2)CC[C@@]2(C)[C@@H](OC(C)=O)[C@H](OC(C)=O)C3=C(C)[C@@H](O)C[C@@H]([C@@H](OC(C)=O)[C@H]12)C3(C)C | 151% | 649% | – | – |
| C=C1[C@@H](OC(=O)/C=C/c2ccccc2)CC[C@@]2(C)[C@@H](OC(=O)/C=C/c3ccccc3)[C@H](OC(=O)/C=C/c3ccccc3)C3=C(C)C(=O)C[C@@H]([C@@H](OC(=O)/C=C/c4ccccc4)[C@H]12)C3(C)C | 186% | 230% | – | – |
| C=C1[C@@H](OC(=O)/C=C/c2ccccc2)CC[C@@]2(C)[C@@H](OC(C)=O)[C@H](OC(C)=O)C3=C(C)C(=O)C[C@@H]([C@@H](OC(C)=O)[C@H]12)C3(C)C | 195% | 571% | – | – |
| C=C1[C@@H](OC(=O)c2ccccc2)CC[C@@]2(C)[C@@H](OC(C)=O)[C@H](OC(C)=O)C3=C(C)[C@H](OC(=O)c4ccccc4)C[C@@H]([C@@H](OC(C)=O)[C@H]12)C3(C)C | 197% | 391% | – | – |
| C=C1[C@@H](OC(=O)/C=C/c2ccccc2)CC[C@@]2(C)[C@@H](O)[C@H](O)C3=C(C)C(=O)C[C@@H]([C@@H](O)[C@H]12)C3(C)C | 225% | 518% | – | – |
| C=C1[C@@H](O)CC[C@@]2(C)[C@@H](OC(C)=O)[C@H](OC(C)=O)C3=C(C)[C@H](O)C[C@@H]([C@@H](OC(C)=O)[C@H]12)C3(C)C | 149% | 290% | – | – |
| CC(=O)O[C@@H]1[C@@H]2CC(=O)C(C)=C([C@@H](OC(C)=O)[C@H](OC(C)=O)[C@]3(C)CC[C@H](O)[C@]4(CO4)[C@@H]13)C2(C)C | 144% | 238% | – | – |
| C=C1[C@@H](OC(=O)/C=C/c2ccccc2)CC[C@@]2(C)[C@@H](O)[C@H](O)C3=C(C)C(=O)C[C@@H]([C@@H](OC(C)=O)[C@H]12)C3(C)C | 274% | 619% | – | – |
| C=C1[C@@H](OC(=O)c2ccccc2)CC[C@@]2(C)[C@@H](OC(C)=O)[C@H](OC(C)=O)C3=C(C)C(=O)C[C@@H]([C@@H](OC(C)=O)[C@H]12)C3(C)C | 184% | 645% | – | – |
| C=C1[C@@H](OC(=O)/C=C/c2ccccc2)CC[C@@]2(C)[C@@H](OC(=O)c3ccccc3)[C@H](OC(=O)c3ccccc3)C3=C(C)C(=O)C[C@@H]([C@@H](OC(C)=O)[C@H]12)C3(C)C | 141% | 210% | – | – |
| C=C1[C@@H](OC(=O)/C=C/c2ccccc2)CC[C@@]2(C)[C@@H](OC(=O)/C=C/c3ccccc3)[C@H](OC(=O)/C=C/c3ccccc3)C3=C(C)C(=O)C[C@@H]([C@@H](OC(C)=O)[C@H]12)C3(C)C | 181% | 273% | – | – |
| C=C1[C@@H](O)CC[C@@]2(C)[C@@H](OC(C)=O)[C@H](OC(C)=O)C3=C(C)C(=O)C[C@@H]([C@@H](O)[C@H]12)C3(C)C | 139% | 271% | – | – |
| C=C1[C@@H](O)CC[C@@]2(C)[C@@H](OC(C)=O)[C@H](OC(C)=O)C3=C(C)[C@@H](O)C[C@@H]([C@@H](OC(C)=O)[C@H]12)C3(C)C | 164% | 422% | – | – |
| C=C1[C@@H](O[Si](CC)(CC)CC)CC[C@@]2(C)[C@@H](OC(C)=O)[C@H](OC(C)=O)C3=C(C)C(=O)C[C@@H]([C@@H](OC(C)=O)[C@H]12)C3(C)C | 213% | 669% | – | – |
| CC[Si](CC)(CC)O[C@H]1CC[C@@]2(C)[C@@H](OC(C)=O)[C@H](OC(C)=O)C3=C(C)C(=O)C[C@@H]([C@@H](OC(C)=O)[C@@H]2[C@]12CO2)C3(C)C | 233% | 752% | – | – |
| CC(=O)O[C@@H]1[C@@H]2CC(=O)C(C)=C([C@@H](OC(C)=O)[C@H](OC(C)=O)[C@]3(C)CC[C@H](OC(=O)c4ccccc4)[C@@]4(CO4)[C@@H]13)C2(C)C | 140% | 402% | – | – |
| CC(=O)O[C@@H]1[C@@H]2CC(=O)C(C)=C([C@@H](OC(C)=O)[C@H](OC(C)=O)[C@]3(C)CC[C@H](OC(=O)/C=C/c4ccccc4)[C@@]4(CO4)[C@@H]13)C2(C)C | 358% | 1027% | 3 µg/mL (≈ 4.82 µM) | > 10 µg/mL |
| C=C1[C@@H](OC(=O)c2ccccc2)CC[C@@]2(C)[C@@H](OC(C)=O)[C@H](OC(C)=O)C3=C(C)C(=O)C[C@@H]([C@@H](OC(=O)c4ccccc4)[C@H]12)C3(C)C | 146% | 470% | – | – |
| CC[Si](CC)(CC)O[C@H]1CC[C@@]2(C)[C@@H](OC(C)=O)[C@H](OC(C)=O)C3=C(C)C(=O)C[C@@H]([C@@H](OC(C)=O)[C@@H]2[C@@]12CO2)C3(C)C | 227% | 748% | – | – |
| C=C1[C@@H](OC(=O)c2ccccc2)CC[C@@]2(C)[C@@H](OC(=O)c3ccccc3)[C@H](OC(=O)c3ccccc3)C3=C(C)C(=O)C[C@@H]([C@@H](OC(C)=O)[C@H]12)C3(C)C | 132% | 324% | – | – |
| C=C1[C@@H](O)CC[C@@]2(C)[C@@H](OC(C)=O)[C@H](OC(C)=O)C3=C(C)[C@@H](OC(=O)c4ccccc4)C[C@@H]([C@@H](OC(C)=O)[C@H]12)C3(C)C | 185% | 643% | – | – |
